{
  "source": "paper PMC12084297",
  "about": "“Cytoplasmic connexin43-microtubule interactions promote glioblastoma stem-like cell maintenance and tumorigenicity” (Cell Death & Disease, 2025)",
  "key": {"VTC-034 GSCs": {"system": "VTC-034 GSCs", "test": "Peptide uptake by confocal fluorescence microscopy, VTC-034 GSCs", "assay_type": "in vitro ADME, human", "settings": "50 μM, 24 h, fluorophore-conjugated streptavidin", "description": "Cells were washed once with warm PBS before fixing in 4% paraformaldehyde for 20 min at room temperature or ice-cold methanol for 5 min on ice, washed twice, and held in PBS at 4°C until immunostaining was conducted. Cells were permeabilized and blocked in 5% normal goat or donkey serum (Fisher Scientific) and 0.1% Triton X-100 in PBS for 2 h at room temperature. Primary antibodies rabbit anti-Cx43 (MilliporeSigma; C6219), mouse anti-pan Cadherin (MilliporeSigma; C1821), or mouse anti-α-tubulin (MilliporeSigma; T6199) were diluted in blocking buffer and labeling was performed overnight at 4 °C. Cells were washed six times with PBS (2 × quick, 2 × 10 min, 2 × 5 min) prior to incubating with goat anti-mouse or -rabbit IgG secondary antibodies (Thermo Fisher) conjugated to Alexa Fluor 488 (A-11029; A-11034), Alexa Fluor 555 (A-21424; A-21429), or Alexa Fluor 647 (A-21236; A-21245) for confocal; or donkey anti-mouse or -rabbit IgG secondary antibodies conjugated to CF568 (Biotium; 20105 and 20098) or Alexa Fluor 647 (Jackson Immunoresearch; 715-605-151 and 711-605-152) for stochastic optical reconstruction microscopy (STORM; see section below), for 1 h at room temperature. DAPI (Thermo Fisher) was included with secondary antibodies to counterstain nuclei for confocal only and was omitted from labeling for STORM. […]"}, "LN229/GSC tumor": {"system": "LN229/GSC tumor", "test": "TUNEL and H&E of LN229/GSC-derived tumor sections", "assay_type": "in vivo, mouse (BALB/c nude), human LN229/GSC cells", "settings": "LN229/GSC tumors, 300 µM intratumorally every other day, after 33 days", "description": "Tumors were harvested, snap-frozen in Tissue-Tek® O.C.T. compound (Sakura), and stored at −80 °C until sectioning. […] sections were cut using a Leica CM1850 UV cryostat, placed onto Superfrost Plus^TM slides (Fisher Scientific) and fixed in −20 °C acetone for 5 minutes before air drying. Slides were stored at −80 °C prior to labeling. Tumors sections were then rehydrated in PBS for 5 min, permeabilized in 0.1% Triton X-100 in PBS for 1 h at room temperature, and washed four times with PBS (2 x quick, 2 × 5 min) prior to incubating with streptavidin conjugated to Alexa Fluor 647 (Thermo Fisher) diluted in high-salt buffer (0.5 M NaCl, 10 mM Hepes) for 30 min at room temperature. Tumor sections were then washed four times with high-salt buffer (2 x quick, 2 × 10 min), and twice with PBS (2 × 5 min) before using One-step TUNEL In Situ Apoptosis kit (Green Elab Fluor® 488; Elabscience), according to manufacturer’s instructions. Tumor sections were then washed in PBS (3 × 5 min), incubated with DAPI (Thermo Fisher) in PBS for 5 min, and washed again with PBS (4 × 5 min) before the slides were mounted using Prolong Gold Antifade (Thermo Fisher). GBM22-derived tumor sections were analyzed using fluorescence confocal microscopy on a Nikon NIE upright confocal microscope, while LN229/GSC-derived tumor sections were observed using LED illumination microscopy on a Revolve microscope. For hematoxylin and eosin (H&E) staining, tumor sections were stained using a Histo-Tek® SL Slide Stainer (Sakura), and observed using phase contrast microscopy on a Revolve microscope. Investigators were blinded for all image acquisition experiments."}, "Notch1 mRNA": {"system": "Notch1 mRNA", "test": "Notch1 mRNA by RT-qPCR, VTC-037 GSCs", "assay_type": "cell-based, human", "settings": "50 μM, 24 h", "description": "RNA was extracted using the PureLink^TM RNA mini extraction kit (Thermo Fisher) and on-column DNA digestion was completed using PureLink^TM DNase according to the manufacturer’s instructions. RNA was reverse transcribed to generate cDNA using the iScript^TM Reverse Transcription SuperMix for RT-qPCR kit (Bio-Rad Laboratories). Real-time PCR was performed using the SYBR select Master Mix for CFX (Thermo Fisher) in hard-shell 96-well PCR plates (Bio-Rad Laboratories) on a CFX Connect Real Time System (Bio-Rad Laboratories). Primer sequences used were: hNOTCH1_Fwd: 5’-CGCACAAGGTGTCTTCCAG-3’; hNOTCH1_Rev: 5’-CGGCGTGTGAGTTGATGA-3’; hHES1_Fwd: 5’-GGCTGGAGAGGCGGCTAA-3’; hHES1_Rev: 5’-[…]-3’; hHEY1_Fwd: 5’-[…]-3’; hHEY1_Rev: 5’-[…]-3’."}},
  "data": [
    {"sequence": "GSDVFKRKFVDRKVG [JM2-scrambled, reference compound]", "values": [
      {"measurement": "Peptide localization after uptake", "setting": "VTC-034 GSCs", "result": "localized within the cytoplasm of GSCs"},
      {"measurement": "Cell death in tumor sections (TUNEL)", "setting": "LN229/GSC tumor", "result": "no significant cell death was observed"}
    ]},
    {"sequence": "VFFKGVKDRVKGRSD [JM2]", "values": [
      {"measurement": "Peptide localization after uptake", "setting": "VTC-034 GSCs", "result": "localized within the cytoplasm of GSCs"},
      {"measurement": "Notch1 mRNA level", "setting": "Notch1 mRNA", "result": "not affected at the transcription level"},
      {"measurement": "Cell death in tumor sections (H&E)", "setting": "LN229/GSC tumor", "result": "further confirmed by H&E staining"},
      {"measurement": "Cell death in tumor sections (TUNEL)", "setting": "LN229/GSC tumor", "result": "increased LN229-derived GSC death that positively correlated with the presence of JM2 within the tumors"}
    ]}
  ]
}
